Laboratory results published in PMC6801822, “The Bactericidal Activity of Temporin Analogues Against Methicillin Resistant Staphylococcus aureus” (International Journal of Molecular Sciences, 2019).
Values after ≈ are worked out from the molar mass of the structure shown. Non-standard residues stand in square brackets, D forms with d. Residues, ends and D or L forms follow the SMILES beside them. AEEA = NCCOCCOCC(=O)O

How the values were obtained:
[1] = system: MRSA clinical isolate 4187; settings: MRSA clinical isolate 4187 (blood); broth microdilution, MHB, 24 h
Protocol: (§1) Antimicrobial activity of peptides was analyzed through determination of MIC parameter according to the standard microdilution technique performed on 96-well plates. Mueller-Hinton broth (MHB, Sigma Aldrich, St. Louis, MO, USA) was used as the working medium for all bacterial strains. Briefly, inoculum was prepared from freshly grown cultures of bacteria being at their exponential phase of growth. Each well of 96-well plates containing 100 µL of serially diluted peptides in PBS at desired concentration was inoculated with 100 µL of 10^5 CFU/mL of bacterial suspension. Then plates were incubated overnight 37 °C and absorbance was read at 600 nm after 24 h. Wells without peptide were treated as the positive control, while uninoculated MHB was defined as the negative control. All measurements were run in triplicates.

[2] = system: MRSA clinical isolate 56A1; settings: MRSA clinical isolate 56A1 (skin); broth microdilution, MHB, 24 h
Protocol: as §1

S. aureus ATCC 25923 = settings: S. aureus ATCC 25923; broth microdilution, MHB, 37 °C, 24 h, triplicates
Protocol: as §1

[3] = system: MRSA clinical isolate 7569; settings: MRSA clinical isolate 7569 (blood); broth microdilution, MHB, 24 h
Protocol: as §1

[4] = system: MRSA clinical isolate 7219; settings: MRSA clinical isolate 7219 (blood); broth microdilution, MHB, 24 h
Protocol: as §1

[5] = system: MRSA clinical isolate 6674; settings: MRSA clinical isolate 6674 (blood); broth microdilution, MHB, 24 h
Protocol: as §1

S. aureus Newman = settings: S. aureus Newman; broth microdilution, MHB, 37 °C, 24 h, triplicates
Protocol: as §1

[6] = system: S. aureus USA300 (MRSA) in suspension; test: Killing of MRSA in suspension, CFU count; assay type: cell-based, Staphylococcus aureus; settings: MRSA 2 × 10^6 CFU/mL, peptide 50 μg/mL, 1 h, n = 2
[7] = system: MRSA clinical isolate 3417; settings: MRSA clinical isolate 3417 (blood); broth microdilution, MHB, 24 h
Protocol: as §1

[8] = system: MRSA clinical isolate 7501; settings: MRSA clinical isolate 7501 (blood); broth microdilution, MHB, 24 h
Protocol: as §1

`CC[C@H](C)[C@H](NC(=O)COCCOCCNC(=O)[C@H](CCCNC(=N)N)NC(=O)[C@H](CC(C)C)NC(=O)[C@H](Cc1ccccc1)NC(=O)CNC(=O)[C@@H](C)NC(=O)[C@@H](N)Cc1ccc(O)cc1)C(=O)N[C@@H](CCCCN)C(=O)N[C@@H](CCCCN)C(=O)N[C@H](C(=O)N[C@@H](CC(C)C)C(=O)N[C@@H](CO)C(=O)N[C@H](CCCCN)C(=O)N[C@H](C(=O)N[C@@H](CCCCN)C(=O)N[C@@H](CCCCN)C(=O)N[C@@H](CC(C)C)C(=O)N[C@@H](CC(C)C)C(N)=O)[C@@H](C)CC)[C@@H](C)CC` [DAL-PEG-DK5] (H-Y[dA]GFLR[AEEA]IKKILS[dK]IKKLL-NH2; N-terminus assumed) showed an MIC [1] of 40 µg/mL (≈ 17.6 µM), an MIC [2] of 40 µg/mL (≈ 17.6 µM) and an MIC (S. aureus ATCC 25923) of 40 µg/mL (≈ 17.6 µM). For the same molecule, the MIC [3] was 40 µg/mL (≈ 17.6 µM), the MIC [4] was 30 µg/mL (≈ 13.2 µM) and the MIC [5] was 40 µg/mL (≈ 17.6 µM). For the same molecule, the MIC (S. aureus Newman) was 140 µg/mL (≈ 61.5 µM), the “reduction in the number of live bacteria in suspension” value [6] was 74% and the MIC [7] was 40 µg/mL (≈ 17.6 µM). For the same molecule, the MIC [8] was 40 µg/mL (≈ 17.6 µM).
